Reference: ChEMBL document CHEMBL3507680, “University of Dundee, Gates Library screen for HepG2 cell viability”

assay: Human HepG2 cell viability assay in 384 well format; type: toxicity, cell-based; design: dose 125 nL, time 70.5 hour; cytotoxicity at 70.5 h: concentration not given beside the values; details: HepG2 cells, read-out: Inhibition

Row | Structure (SMILES) | cytotoxicity at 70.5 h [%]
1 | Cc1nc(C)n(CC2CCCN2Cc2nc3ccccc3o2)n1 (stereo unspecified) | -5.98
2 | CC(OCC1CC1)C(=O)N1CCCN(Cc2nccn2C(C)C)CC1 (stereo unspecified) | -5.25
3 | Cn1ccnc1CN1CCCN(C(=O)CC(C2CC2)C2CC2)CC1 | 0.914
4 | Cc1cnn(CC2CCCN2CC(=O)NC2CCN(C3CC3)CC2)c1 (stereo unspecified) | -3.72
5 | Cc1nc(C2CCCN(C(=O)c3cccc4c3OCO4)C2)sc1C (stereo unspecified) | -2.18
6 | Cc1csc(C2CCCN(C(=O)c3cccc4c3OCO4)C2)n1 (stereo unspecified) | -4.7
7 | CC(C)c1nc(C2CCCN(C(=O)c3cccc4c3OCO4)C2)no1 (stereo unspecified) | -1.62
8 | COCCn1cc(NC(=O)NC(C)Cc2c(F)cccc2F)cn1 (stereo unspecified) | 12.3
9 | Cc1cc(NC(=O)NCc2cccnc2OC2CCCC2)n(C)n1 | -2.74
10 | COc1ncccc1CNC(=O)Nc1cc(C)nn1C | -7.29
11 | Cc1cccnc1NC(=O)NCc1cccnc1OC(C)C | -6.17
12 | Cc1ccccc1CNC(C)c1ccc(OCC(=O)NC2CC2)cc1 (stereo unspecified) | 13.8
13 | CC(Cc1ccccc1Cl)NC(=O)Nc1cnn(CC(N)=O)c1 (stereo unspecified) | -2.99
14 | COc1ccc(COCC(O)CNC(=O)c2cc(C)no2)cc1 (stereo unspecified) | -4.49
15 | COc1ccc(COCC(O)CNC(=O)c2cc(C)oc2C)cc1 (stereo unspecified) | 1.97
16 | Cc1ncccc1CNCC1CCN(CCO)CC1 | -0.718
17 | Cc1cnn(CC(C)NCc2ccc(OCc3cccnc3)cc2)c1 (stereo unspecified) | 2.45
18 | Cc1cnn(CC(C)NCc2ccc(OCc3cscn3)cc2)c1 (stereo unspecified) | -6.24
19 | Cc1nnc2n1CCN(CCOc1ccc(C(C)(C)C)cc1)C2 | -4.66
20 | O=C(NC1CC1)C1CCN(c2snc3ccccc23)CC1 | 15.8
21 | CC1CCCN(C(=O)C2CCN(c3snc4ccccc34)CC2)C1 (stereo unspecified) | 5.93
22 | CSCC(=O)N1CCCCC1Cn1cc(C)cn1 (stereo unspecified) | -1.03
23 | Cc1cnn(CC2CCCN2C(=O)Cc2c(C)nc(C)[nH]c2=O)c1 (stereo unspecified) | 15.2
24 | CCc1nc(C)ncc1C(=O)N1CCOC(c2nc(C)n[nH]2)C1 (stereo unspecified) | -0.337
25 | CCCc1n[nH]c(C2CN(CCNS(C)(=O)=O)CCO2)n1 (stereo unspecified) | 25.5
26 | CCn1ccnc1CN1CCCN(C(=O)COC2CCCC2)CC1 | 22.5

Row | Structure (SMILES) | cytotoxicity at 70.5 h [%]
27 | Cc1cc(CN(Cc2cccs2)CC2CCCO2)on1 (stereo unspecified) | 20.8
28 | O=C(NCC(F)(F)F)C1CSCN1S(=O)(=O)c1ccccc1F (stereo unspecified) | 26
29 | CCN1CCC(CNC(=O)C2(c3ccc(F)cc3)CC2)C1 (stereo unspecified) | 52
30 | CCCc1n[nH]c(C2CN(CCCS(=O)(=O)N(C)C)CCO2)n1 (stereo unspecified) | -4.5
31 | Cc1cnn(CC2CN(Cc3nccn3CC(F)(F)F)CCO2)c1 (stereo unspecified) | 26.3
32 | N#CC1CCN(C(=O)NCCc2ccc(Cl)s2)CC1 | -3.5
33 | O=C(Cc1csc(-c2ccco2)n1)N1CCN(c2ccccc2O)CC1 | -4.66
34 | c1ccc(Cc2noc(CN(Cc3cccs3)CC3CCCO3)n2)cc1 (stereo unspecified) | -4.54
35 | CC(=O)N1CCN(C(=O)NCc2ccc(Cl)s2)CC1 | 20.2
36 | Cc1ccc(S(=O)(=O)N2CSCC2C(=O)NCC(F)(F)F)cc1C (stereo unspecified) | -3.59
37 | N#Cc1ccc(S(=O)(=O)N2CSCC2C(=O)NCC(F)(F)F)cc1 (stereo unspecified) | -5.51
38 | O=C(Cc1csc(-c2ccco2)n1)N1CCN(c2nccs2)CC1 | -5.89
39 | Cc1ccoc1C(=O)NC1CCN(Cc2ccccc2F)CC1 | 27.3
40 | Cc1ncsc1C(=O)NC1CCN(Cc2cccc3c2OCCO3)CC1 | -0.651
41 | Cc1ccoc1C(=O)NC1CCN(Cc2ccccc2C#N)CC1 | -1.98
42 | Cc1ccc(NC2CCN(C(=O)c3ccc(F)cc3Cl)CC2)nn1 | -3.69
43 | O=C(O)c1cc(S(=O)(=O)Nc2ccccc2)cc2c1OCCO2 | 4.5
44 | Cc1ccc(NS(=O)(=O)c2cc3c(c(C(=O)O)c2)OCCO3)cc1F | -3.64
45 | CCc1ccc(NS(=O)(=O)c2cc3c(c(C(=O)O)c2)OCCO3)cc1 | -0.0386
46 | CN(Cc1ccsc1)C(=O)Nc1ccc(S(C)(=O)=O)nc1 | 2.4
47 | COC(=O)c1ccc(S(=O)(=O)NCc2cccnc2N(C)C)cc1 | 29.6
48 | CCCOc1ccc(CNC(=O)N2CCC(C(N)=O)C2)cc1 (stereo unspecified) | -0.602
49 | CC(C)N(CC(N)=O)Cc1csc(COc2ccc(F)cc2)n1 | 43.4
50 | CS(=O)(=O)c1ccc(CNC(=O)N2CCC(C(N)=O)C2)cc1 (stereo unspecified) | 30
51 | CCOc1ccnc(N2CCN(C(=O)c3cccnc3O)CC2)n1 | 1.67
52 | CCCc1nc(CN2CCCC2Cn2cncn2)cs1 (stereo unspecified) | 17.1

Row | Structure (SMILES) | cytotoxicity at 70.5 h [%]
53 | COc1cc(C)nc(N2CCN(C(=O)CCn3cc(C)cn3)CC2)n1 | -0.584
54 | CC(=O)Nc1nc(CN2CCCC2c2cnn(C)c2)cs1 (stereo unspecified) | 31.4
55 | CCn1ncc2c1CCCC2NCc1cc(Cl)c(OC)c(OC)c1 (stereo unspecified) | 27.8
56 | CCn1ncc2c1CCCC2NCc1ccc(OC)c(C)c1 (stereo unspecified) | 33.6
57 | Cc1nc(C)n(C2CCCN(C(=O)c3sccc3C3CC3)C2)n1 (stereo unspecified) | 21.5
58 | Cc1nn(C)c(N2CCOCC2)c1CNC1CCOc2ccccc21 (stereo unspecified) | -3.07
59 | COc1c(C)cnc(CN2CCOC(Cn3nc(C)nc3C)C2)c1C (stereo unspecified) | -1.22
60 | c1coc(-c2noc(CN3CCCC(Cn4cncn4)C3)n2)c1 (stereo unspecified) | 26
61 | CCn1cc(CN2CCCN(C(=O)c3sccc3C#N)CC2)cn1 | 37.5
62 | CCn1ccnc1CN1CCCN(C(=O)c2sccc2C#N)CC1 | 1.96
63 | CCc1noc(C)c1C(=O)N1CCCC1c1c(C)nn(C)c1OC (stereo unspecified) | 18
64 | Cc1nn(C)c(C)c1C1CCCN1Cc1cccc(C(=O)N(C)C)c1 (stereo unspecified) | 37.6
65 | Cc1nc(CN2CCOC(c3nc(C(C)C)n[nH]3)C2)oc1C (stereo unspecified) | 6.2
66 | CCc1nc(CN(C(C)=O)C2CCN(CCc3cnn(C)c3)C2)no1 (stereo unspecified) | 21.3
67 | CCN1CCN(C2CCN(Cc3noc(C)n3)CC2)C1=O | 28.4
68 | Cc1ccc(NC(=O)NCCCc2n[nH]c(N)c2C#N)cc1 | -3.1
69 | COCCOc1ccc(NC(=O)C2CCC2)cn1 | -7.54
70 | CC(NC(=O)NCCCn1ccnc1)c1ccc2c(c1)CCC(=O)N2 (stereo unspecified) | 43.4
71 | Cc1noc(NC(=O)c2ccc(C)c(F)c2)n1 | 41
72 | CC(NC(=O)NCCCn1cccn1)c1ccc2c(c1)NC(=O)CO2 (stereo unspecified) | 46.4
73 | N#Cc1cccc(S(=O)(=O)NC2CCN(Cc3ccccc3)C2=O)c1 (stereo unspecified) | -2.45
74 | COc1cc(C(=O)Nc2c(C)noc2C)ccc1C | 1.7
75 | CCS(=O)(=O)N(C)C(=O)c1cc(C)n(-c2cccc(OC)c2)c1C | 27.9
76 | Cc1cnn(CC2CN(c3cnc4ccccc4n3)CCO2)c1 (stereo unspecified) | 48.4
77 | Cc1cc(CN2CCN(CC(O)C(C)(C)C)CC2)no1 (stereo unspecified) | 9.4
78 | CC(C)c1n[nH]c(C(=O)Nc2ccnn2C(C)C)c1Br | 45.8

Row | Structure (SMILES) | cytotoxicity at 70.5 h [%]
79 | Cc1cc(CN2CCN(CC(O)c3ccccc3)CC2)no1 (stereo unspecified) | 0.624
80 | COc1cccc2cc(CNC(=O)N3CCCC(O)C3)oc12 (stereo unspecified) | 46.8
81 | CNS(=O)(=O)CCCN1CCCC1c1noc(C2CC2)n1 (stereo unspecified) | -6.19
82 | Cc1nc(CN2CCCC(NCCOc3ccccc3)C2)no1 (stereo unspecified) | -5.84
83 | Cc1cc(C)n(C2CCCN(C(=O)Cc3csc(C)n3)C2)n1 (stereo unspecified) | 12.8
84 | Cc1nc(CN2CCCC(NCCOCC(F)(F)F)C2)no1 (stereo unspecified) | 24.6
85 | COc1ccccc1CC(=O)N1CCCC(n2nc(C)cc2C)C1 (stereo unspecified) | 2.04
86 | CN(Cc1ncc(C(C)(C)C)o1)C1CCCN(c2cccnn2)C1 (stereo unspecified) | -11.9
87 | Cc1nccn1CC1CCCN1S(=O)(=O)Cc1ccon1 (stereo unspecified) | 4.51
88 | Cn1cc(C2CCCN2C(=O)Cc2n[nH]c3ccccc23)cn1 (stereo unspecified) | 40.1
89 | CCC(CC)C(CNC(=O)Nc1cc(C)nn1C)N1CCOCC1 (stereo unspecified) | 36.9
90 | Cc1cc(CN2CCN(C(=O)NCc3ccc(C)s3)CC2)no1 | -27.6
91 | CN1CCN(C(=O)c2cnc3c(cnn3C3CCCC3)c2)CC1 | -10
92 | CCN(CC1CCCO1)C(=O)Nc1cc(OC)c(OC)cc1C (stereo unspecified) | -14.3
93 | CC(C)C(=O)N1CCN(C(=O)CCc2nnc(-c3ccccc3)o2)CC1 | -21.2
94 | CCC(O)CN1CCN(C(=O)c2cccn2Cc2cccs2)CC1 (stereo unspecified) | -17.9
95 | Cc1nc(C2CCCN(C(=O)c3cc(Cl)c[nH]3)C2)no1 (stereo unspecified) | -15.5
96 | Cc1cc(C(=O)N2CCCC(c3noc(C)n3)C2)[nH]n1 (stereo unspecified) | 34.4
97 | O=C(CCCc1nnc(-c2ccccc2)o1)N1CCN(CCO)CC1 | -32.4
98 | CCN(CC1CCCO1)C(=O)Nc1cc(C(=O)OC)ccc1F (stereo unspecified) | -22.1
99 | O=C(c1n[nH]c2ccccc12)N1CCCC1c1noc(C2CC2)n1 (stereo unspecified) | -17.4
100 | CCOC1CCCN(C(=O)c2cnc3c(cnn3C3CCCC3)c2)C1 (stereo unspecified) | -18
101 | CC(C)(C)c1cnc(CN2CCC(c3ccnn3CCO)CC2)o1 | -11.1
